Test results: the NIST ThermoML archive (doi:10.1016/j.fluid.2015.05.043)
± gives the expanded uncertainty stated by the source.

Conditions: 298.15 K; 101.33 kPa; Liquid; Alternating current cell with electrodes

- electrical conductivity: 0.000129 ± 1e-06 S/m
SMILES: O [water]
